Experimental data reported in PubChem BioAssay (NCI).
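Cultured in 96-well plates, cells were exposed to test compound for 48 hours across five concentrations. Here, GI50 denotes the concentration required for 50% inhibition of growth. TGI: concentration producing complete growth inhibition.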

Tested on: MDA-MB-468 breast
Test: DTP human tumour cell line panel, 48 h

Structure (SMILES) | GI50 [nM] | TGI [µM]
O=C(Nc1n[nH]c2nnc(-c3cccnc3)cc12)C1CC1 | 805 | 5.02
Cc1ccc(NC(=O)c2sc3nc4c(cc3c2N)C(=O)CCC4)cc1C | 314 | > 100
CC(=O)c1cc(C(=O)c2ccc3c(c2)Sc2ccccc2N3)c2cc(C)ccn12 | 66.3 | 7.21
COc1ccc(N2CCN(C3=C(Cl)C(=O)c4ncccc4C3=O)CC2)cc1 | 1840 | 3.5
CC1(C)[C@@H](OC(=O)CCC(=O)O)CC[C@]2(C)[C@H]3C(=O)C=C4[C@@H]5C[C@@](C)(C(=O)O)CC[C@]5(C)CC[C@@]4(C)[C@]3(C)CC[C@@H]12 | 78600 | 189
Cc1ccc(Cl)c(Nc2ccccc2C(=O)O)c1Cl | 25900 | 67.2
CN(C)c1ccc(/C=C/C2=[N+](C)c3ccccc3C2(C)C)cc1 | 555 | 6.19
COc1cc(-c2cc(-c3cc(OC)c(OC)c(OC)c3)nc3nc(N)[nH]c(=O)c23)ccc1Oc1ccnc2cc(Cl)ccc12 | 3240 | > 100
COC1=CC(c2ccc[nH]2)=N/C1=C\c1[nH]c(C)c(C(=O)CCCCC(=O)Oc2ccc3c(c2)CCC2C3CC[C@]3(C)[C@@H](O)CC[C@@H]23)c1C (stereo partly specified) | 4920 | > 100
CCOc1cccc(-c2nc(N)nc(Nc3ccccc3SSc3ccccc3Nc3nc(N)nc(-c4cccc(OCC)c4)n3)n2)c1 | 24200 | > 100
CC1=C2C(=C[C@@](C)(COS(C)(=O)=O)[C@@H]2O)C(=O)[C@](C)(O)C12CC2 | 201 | 0.519
COc1cc(/C=C/C(=O)N2CCN(C(=O)c3cc(OC)c(OC)c(OC)c3)CC2)ccc1OCCCOc1cc2c(cc1OC)C(=O)N1CCC[C@H]1C=N2 | 102 | 0.336
COc1ccc(/C=C2\C=C(c3ccccc3)N(CCc3ccccc3)C2=O)cc1OC | 7570 | 42.4
CCN(CC)C1CCC(Nc2c(C(C)=O)cnc3ccc(-c4ccc(O)c(Cl)c4)cc23)CC1 (stereo unspecified) | 871 | 15.8
Cn1cc(C2=C(c3cn(C)c4ccccc34)C(=O)NC2=O)c2ccccc21 | 650 | > 25
COc1cc2c(cc1Nc1nc(Nc3cccc(F)c3C(N)=O)c3cc[nH]c3n1)N(C(=O)CN1CCN(C(C)C)CC1)CC2 | 2220 | 5.73
O=C1OCC2=C1C(c1ccc(Cl)c(Cl)c1)c1cc3c(cc1N2CCO)CCC3 (stereo unspecified) | 109 | 0.35
COc1cc(C(=O)Nc2cc(OC)c3ccn(C)c3c2)cc2c1C[C@]1(C)CC[C@@H](O)C(C)(C)[C@H]1O2 | 488 | 3.01
CCN(CC)Cc1c(/C=C\c2cc(OC)c(OC)c(OC)c2)ccc(OC)c1O | 7970 | 34
N#C[Se]CCCNS(=O)(=O)C1CC2C=CC1C2 (stereo unspecified) | 1290 | 4.16
O=c1oc2ccc(Br)cc2c(=O)n1-c1ccc(I)cc1F | 547 | 2.04
COc1ccc(C2=NN(C(=O)c3cc(OC)c(OC)c(OC)c3)C(c3ccc(N(C)C)cc3)C2)cc1 (stereo unspecified) | 236 | 0.644
CCOC(=O)C(=O)/C(=C/N1C(=O)CC(=O)NC1=S)C(=O)OCC | > 100000 | > 100
